≈ marks a conversion by molar mass, not a printed value.

One assay deals with Plasmodium falciparum. As to the kind of experiment: Antiparasitic activity against Plasmodium falciparum by cell based assay. Format: functional, organism-based.
Another assay deals with Leishmania donovani. The experiment in a line: Antiparasitic activity against Leishmania donovani by cell based assay. Format: functional, organism-based.
A further assay has as its system Trichophyton rubrum. The experiment in a line: Antimicrobial activity against Trichophyton rubrum IFO9185 by serial two-fold broth dilution method. Format: functional. Background: Dilution methods test growth across graded concentrations, often in twofold steps.
The subject of assay [1] is Candida albicans. As to the kind of experiment: Antimicrobial activity against Candida albicans ATCC 10231 by serial two-fold broth dilution method. The assay is classed as functional.
The test system of a further assay is Aspergillus fumigatus. As to the kind of experiment: Antimicrobial activity against Aspergillus fumigatus HIC6094 by serial two-fold broth dilution method. Format: functional.
The test system of assay [2] is Trichophyton mentagrophytes. As to the kind of experiment: Antimicrobial activity against Trichophyton mentagrophytes IFO40996 by serial two-fold broth dilution method. The assay is classed as functional.
The test system of assay [3] is Escherichia coli. The experiment in a line: Antibacterial activity against Escherichia coli ATCC 25922 after 24 to 48 hrs by two-fold microdilution susceptibility assay. Format: functional.
The next assay has as its system HeLa. The experiment in a line: Cytotoxicity against human HeLa cells assessed as growth inhibition after 48 hrs by SRB assay. The assay is classed as functional.
A further assay relates to CCRF-CEM. As to the kind of experiment: Cytotoxicity against human CCRF-CEM cells assessed as growth inhibition after 48 hrs by SRB assay. Format: functional.
Assay [4] is described as follows: Cytotoxicity against human RPMI8226 cells assessed as growth inhibition after 48 hrs by SRB assay. Format: functional. As to conditions: RPMI-8226, 48 h. Background: In SRB staining, fixed cells bind dye roughly in proportion to their protein.
Assay [5] in a line: Cytotoxicity against human HOP92 cells assessed as growth inhibition after 48 hrs by SRB assay. Particulars: HOP-92, 48 h. Format: functional.
The subject of a further assay is NCI-H522. The experiment in a line: Cytotoxicity against human NCI-H522 cells assessed as growth inhibition after 48 hrs by SRB assay. The assay is classed as functional. Particulars: NCI-H522, 48 h.
The subject of another assay is EKVX. The experiment in a line: Cytotoxicity against human EKVX cells assessed as growth inhibition after 48 hrs by SRB assay. The assay is classed as functional.
The subject of assay [6] is Candida albicans. The experiment in a line: Antifungal activity against Candida albicans after 24 to 48 hrs by two-fold microdilution susceptibility assay. The assay is classed as functional.
Assay [7] deals with Escherichia coli. As to the kind of experiment: Antimicrobial activity against Escherichia coli after 24 hrs by serial dilution method. The assay is classed as functional.
Another assay concerns HepG2. As to the kind of experiment: Cytotoxicity against human HepG2 cells assessed as growth inhibition after 48 hrs by SRB assay. The assay is classed as functional. As to conditions: HepG2, 48 h.
The test system of the next assay is Rattus norvegicus. The experiment in a line: Antiinflammatory activity against albino rat assessed as inhibition of carrageenin induced paw edema at 100 mg/kg, po administered for 1 hr followed by carrageenin challenge measured after 4 hrs. Format: functional. Background: Carrageenan injected into the paw causes an acute inflammation.
In the next assay the test system is Staphylococcus aureus. The experiment in a line: Antimicrobial activity against Staphylococcus aureus MTCC 96 after 24 hrs by serial two-fold broth dilution method. As to conditions: MTCC 96, 24 h. Format: functional.
In another assay the test system is Klebsiella aerogenes. The experiment in a line: Antimicrobial activity against Klebsiella aerogenes MTCC 39 after 24 hrs by serial two-fold broth dilution method. The assay is classed as functional. As to conditions: MTCC 39, 24 h.
Assay [8] deals with Chromobacterium violaceum. As to the kind of experiment: Antimicrobial activity against Chromobacterium violaceum MTCC 2625 after 24 hrs by serial two-fold broth dilution method. Format: functional. Particulars: MTCC 2625, 24 h.
Assay [9] has as its system Lysinibacillus sphaericus. As to the kind of experiment: Antimicrobial activity against Bacillus sphaericus MTCC 11 after 24 hrs by serial two-fold broth dilution method. As to conditions: MTCC 11, 24 h. Format: functional.
The test system of a further assay is Pseudomonas aeruginosa. As to the kind of experiment: Antimicrobial activity against Pseudomonas aeruginosa MTCC 741 after 24 hrs by serial two-fold broth dilution method. The assay is classed as functional. As to conditions: MTCC 741, 24 h.
The next assay relates to Bacillus subtilis. The experiment in a line: Antimicrobial activity against Bacillus subtilis MTCC 441 after 24 hrs by serial two-fold broth dilution method. Format: functional. Particulars: MTCC 441, 24 h.

Usually IC50 stands for the concentration that gives 50% inhibition. `CC1=NN(C2=NC(=O)CS2)C(c2ccccc2)C1` (centres undefined): the values for the IC50 in the assay with Plasmodium falciparum and in the assay on Leishmania donovani were more than 5 µg/mL and more than 30 µg/mL, respectively.

The term MIC denotes the lowest concentration that inhibits growth of the organism. High values mean weaker potency, low ones greater potency. `Cc1nn(-c2ccccc2)c(C)c1-c1cc(-c2ccc(Cl)cc2)nc(N2C(=O)CSC2c2ccc(N(C)C)cc2)n1` (centres undefined): the MIC (against Trichophyton rubrum; with Candida albicans [1]; against Aspergillus fumigatus; in [2]) was 14 µg/mL (≈ 24.1 µM) throughout.

In the assay on Escherichia coli [3], `Cc1ccc(N2C(=O)CS/C2=N/N=C\c2cn(-c3ccccc3)nc2-c2ccc(Br)s2)cc1` had a minimum inhibitory concentration (MIC) of 25 µg/mL (≈ 46.6 µM).

For `Cc1nn(-c2ccccc2)c(C)c1-c1cc(-c2ccc(Cl)cc2)nc(N2C(=O)CSC2c2ccco2)n1` (centres undefined), the MIC (with Trichophyton rubrum; in the assay with Candida albicans [1]; in the assay on Aspergillus fumigatus; in assay [2]) was 14 µg/mL (≈ 26.5 µM) throughout.

Broadly, the GI50 is the concentration at which growth is held to half of that of the control. `Cc1ccc(N2C(=O)CSC2c2cn(-c3ccccc3)nc2-c2cc3ccccc3o2)cc1` (centres undefined): the concentration for 50% growth inhibition (GI50) in the assay with HeLa is 1.2 µg/mL (≈ 2.66 µM).

For the molecule `O=C1NC(=S)S/C1=C\c1cn(-c2ccccc2)nc1-c1ccccc1`, the GI50 was found to be 2500 nM in the assay with CCRF-CEM; 2520 nM in [4]; 620 nM in assay [5]; 2960 nM in the assay on NCI-H522; 3030 nM in the assay with EKVX. Besides, the CC50 in [5] (read-out: LC50 (the source's name)) is more than 100000 nM.

`O=C1CS/C(=N/N=C\c2cn(-c3ccccc3)nc2-c2ccc(Br)s2)N1c1ccc(Cl)cc1` came in with an MIC against Candida albicans [6] of 12.5 µg/mL (≈ 22.4 µM).

`CC(=O)OC[C@@H]1O[C@@H](N2C(=O)/C(=C/c3cn(-c4ccccc4)nc3-c3ccc(Br)cc3)SC2=S)[C@@H](OC(C)=O)[C@H](OC(C)=O)[C@@H]1OC(C)=O`: the MIC with Escherichia coli [7] was 143 µg/mL (≈ 185 µM).

As for `C(=N\Nc1nc(-c2ccc3c(c2)CCCC3)cs1)/c1cn(-c2ccccc2)nc1-c1cc2ccccc2o1`, in the assay on HepG2, the GI50 stood at 5 µg/mL (≈ 9.7 µM).

One may read the inhibition in vivo as how much of the control response was suppressed. Turning to `CC(C(=O)O)c1cccc(C(=O)c2ccccc2)c1` (centres undefined) [KETOPROFEN], in the assay on Rattus norvegicus, the inhibition in vivo at 100 mg/kg turned out to be 63%.

As for `CC1(C)S[C@@H]2[C@H](NC(=O)Cc3ccccc3)C(=O)N2[C@H]1C(=O)O` [PENICILLIN G], the minimal inhibitory concentration (MIC) (against Staphylococcus aureus; against Klebsiella aerogenes; in assay [8]; in [9]; in the assay on Pseudomonas aeruginosa; against Bacillus subtilis) was 1.56 µg/mL (≈ 4.67 µM) throughout.

`CN(C)[C@@H]1C(O)=C(C(N)=O)C(=O)[C@@]2(O)C(O)=C3C(=O)c4c(O)cccc4[C@@](C)(O)[C@H]3C[C@@H]12` [TETRACYCLINE] registered an MIC with Escherichia coli [7] of 39 µg/mL (≈ 87.8 µM).

For the origin of these results see ChEMBL document CHEMBL3779866, “Synthetic approaches, structure activity relationship and biological applications for pharmacologically attractive pyrazole/pyrazoline-thiazolidine-based hybrids” (Eur J Med Chem, 2016).
